The results in this text go back to patent US10239849B2 (Merck Sharp & Dohme Corp., priority 2015, dated 2019).

Assay [1] deals with T1, glutathione-S-transferase (GST) tagged LXRalpha LBD (ligand binding domain) (Homo sapiens, UniProt Q13133).
T1 construct: purchased Invitrogen pv4655
T1 sequence (Q13133 209-447 limits assumed): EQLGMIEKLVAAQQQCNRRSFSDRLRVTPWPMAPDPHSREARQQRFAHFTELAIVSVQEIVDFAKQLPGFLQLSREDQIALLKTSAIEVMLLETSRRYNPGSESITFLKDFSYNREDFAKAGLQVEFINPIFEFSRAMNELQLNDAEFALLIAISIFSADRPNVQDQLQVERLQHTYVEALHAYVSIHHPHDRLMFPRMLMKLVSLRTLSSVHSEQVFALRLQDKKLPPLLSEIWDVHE
As to the kind of experiment: LanthaScreen TR-FRET Liver X Receptor Coactivator Assay, LXR alpha-LBD. In kind it is biochemical. The settings on record: for Emax: efficacy in relation to reference dual agonist T1317, read-out: LXR alpha activity at max dose (%) (Emax); for EC50 / LXR alpha IP (nM): potency (Inflection Point) of co-activator recruitment, TR-FRET; for EC50: read-out: LXR alpha IP. As to the method:
(§1) While running the LanthaScreen™ TR-FRET Liver X Receptor Coactivator Assay, LXR alpha-LBD or LXR beta-LBD was added to ligand test compounds followed by addition of a mixture of a fluorescein-labelled coactivator peptide and terbium-conjugated anti-GST antibody. After an incubation period at room temperature, TR-FRET (time-resolved fluorescence resonance energy transfer) was measured using a filter-based instrument capable of TR-FRET, e.g. PerkinElmer Envision.
(In general: In TR-FRET formats the signal depends on donor and acceptor labels being close together.)

Assay [2] deals with T2, glutathione-S-transferase (GST) tagged LXRbeta LBD (ligand binding domain) (Homo sapiens, UniProt P55055).
T2 construct: purchased Invitrogen pv4658.pps
T2 sequence (P55055 222-460 limits assumed): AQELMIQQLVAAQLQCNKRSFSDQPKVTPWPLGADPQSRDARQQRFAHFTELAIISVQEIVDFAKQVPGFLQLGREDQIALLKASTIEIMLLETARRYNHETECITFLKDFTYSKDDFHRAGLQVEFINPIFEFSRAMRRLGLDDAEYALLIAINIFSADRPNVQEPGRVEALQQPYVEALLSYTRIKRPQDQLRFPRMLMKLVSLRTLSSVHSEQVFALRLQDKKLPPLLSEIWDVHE
The assay is described as follows: LanthaScreen TR-FRET Liver X Receptor Coactivator Assay, LXR beta-LBD. The class given is biochemical. The following applies: for Emax: efficacy in relation to reference dual agonist T1317, read-out: LXR beta activity at max dose (%) (Emax); for EC50: potency (Inflection Point) of co-activator recruitment, TR-FRET, read-out: LXR beta IP. As to the method: as §1

Take `CC(C)(C)OC(=O)N1CCN(c2ncc(-c3ccc(C(=O)N4CC[C@@H](O)C4)c(Cl)c3)cc2C#N)CC1` [Example 5-12, tert-butyl 4-[5-(3-chloro-4-{[(3R)-3-hydroxypyrrolidin-1-yl]carbonyl}phenyl)-3-cyanopyridin-2-yl]piperazine-1-carboxylate]: the figures for the maximum response (Emax) in assay [1] and in assay [2] were 37% and 60%, respectively. For the same compound, the EC50 worked out at 8.44 µM in assay [1] and 0.481 µM in assay [2].

Turning to `CN(C)C(=O)c1ccc(-c2ccc(N3CCN(C(=O)c4ccccc4C#N)CC3)cc2)cc1Cl` [Example 4-2, 3-chloro-4′-{4-[(2-cyanophenyl)carbonyl]piperazin-1-yl}-N,N-dimethylbiphenyl-4-carboxamide], in assay [1], the Emax (commonly the greatest response seen or fitted, relative to the assay's reference) is 24% and the “LXR alpha IP (nM)” value is reported as “No IP”. Moreover, in assay [2], the Emax was 93% and the EC50 stood at 2.33 µM.

As to `CC(C)(C)OC(=O)N1CCN(c2ncc(-c3ccc(C(=O)N4CCC(O)CC4)c(Cl)c3)cc2C#N)CC1` [Example 5-17, tert-butyl 4-(5-{3-chloro-4-[(4-hydroxypiperidin-1-yl)carbonyl]phenyl}-3-cyanopyridin-2-yl)piperazine-1-carboxylate], in assay [1], the Emax came out at 17% and the “LXR alpha IP (nM)” value is “No IP”. Further, in assay [2], the Emax is 47% and the EC50 was found to be 0.415 µM.

In the case of `CN(C)C(=O)c1ccc(-c2cnc(N3CCN(C(=O)C(O)(C(F)(F)F)C(F)(F)F)CC3)c(C#N)c2)cc1Cl` [Example 2-30, 2-chloro-4-(5-cyano-6-{4-[3,3,3-trifluoro-2-hydroxy-2-(trifluoromethyl)propanoyl]piperazin-1-yl}pyridin-3-yl)-N,N-dimethylbenzamide], in assay [1], the Emax is 66% and the EC50 was determined as 5.29 µM. Moreover, in assay [2], the maximum response (Emax) is 125% and the EC50 turned out to be 0.006 µM.

`CC(C)(C)OC(=O)N1CCN(c2ncc(-c3ccc(C(=O)N4CCC4)c(Cl)c3)cc2C#N)CC1` [Example 5-4, tert-butyl 4-{5-[4-(azetidin-1-ylcarbonyl)-3-chlorophenyl]-3-cyanopyridin-2-yl}piperazine-1-carboxylate]: in assay [1], the Emax was 39% and the EC50 amounted to 21.2 µM. In assay [2], the Emax came out at 71% and the EC50 turned out to be 1.52 µM.

As for `CN(C)C(=O)c1ccc(-c2cnc(N3CCN(C(=O)OC(C)(C)C)C(c4ccccc4)C3)c(C#N)c2)cc1Cl` (centres unmarked) [Example 8-12, tert-butyl 4-{5-[3-chloro-4-(dimethylcarbamoyl)phenyl]-3-cyanopyridin-2-yl}-2-phenylpiperazine-1-carboxylate], in assay [1], the maximal response (Emax) amounted to 40% and the EC50 was 0.954 µM. Besides, in assay [2], the Emax came out at 70% and the EC50 was 0.006 µM.

In the case of `CNC(=O)c1ccc(-c2cnc(N3CCN(C(=O)C(C)(C)C)CC3)c(C#N)c2)cc1Cl` [Example 6-2, 2-chloro-4-{5-cyano-6-[4-(2,2-dimethylpropanoyl)piperazin-1-yl]pyridin-3-yl}-N-methylbenzamide], the results for the maximal response (Emax) in assay [1] and in assay [2] were 34% and 98%, respectively. For the same compound, the EC50 in assay [1] turned out to be 11.3 µM; in assay [2] it was 0.329 µM.

Consider `CCN(C)C(=O)c1ccc(-c2cnc(N3CCN(C(=O)OC(C)(C)C)CC3)c(C#N)c2)cc1Cl` [Example 5-5, tert-butyl 4-(5-{3-chloro-4-[ethyl(methyl)carbamoyl]phenyl}-3-cyanopyridin-2-yl)piperazine-1-carboxylate], for which, in assay [1], the Emax was 54% and the EC50 turned out to be 2.68 µM. In assay [2], the Emax amounted to 76% and the EC50 is 0.088 µM.

`CN(C)C(=O)c1ccc(-c2cnc(N3CCN(C(=O)C45CC(C4)C5)CC3)c(C#N)c2)cc1Cl` [Example 2-4, 4-{6-[4-(bicyclo[1.1.1]pent-1-ylcarbonyl)piperazin-1-yl]-5-cyanopyridin-3-yl}-2-chloro-N,N-dimethylbenzamide]: the Emax in assay [1] is 44%; in assay [2], 79%. Besides, the figures for the EC50 in assay [1] and in assay [2] were 12.8 µM and 0.095 µM, respectively.

With `CN(CCn1cccn1)C(=O)c1ccc(-c2cnc(N3CCN(C(=O)OC(C)(C)C)CC3)c(C#N)c2)cc1Cl` [Example 5-23, tert-butyl 4-[5-(3-chloro-4-{methyl[2-(1H-pyrazol-1-yl)ethyl]carbamoyl}phenyl)-3-cyanopyridin-2-yl]piperazine-1-carboxylate], in assay [1], the Emax came to 46% and the EC50 was 19.3 µM. Moreover, in assay [2], the Emax was 74% and the EC50 was 0.282 µM.

`CN(CCCO)C(=O)c1ccc(-c2cnc(N3CCN(C(=O)OC(C)(C)C)CC3)c(C#N)c2)cc1Cl` [Example 5-15, tert-butyl 4-(5-{3-chloro-4-[(3-hydroxypropyl) (methyl)carbamoyl]phenyl}-3-cyanopyridin-2-yl)piperazine-1-carboxylate]: the Emax in assay [1] amounted to 42%; in assay [2] it was 70%. Moreover, the EC50 in assay [1] stood at 6.87 µM; in assay [2] it was 0.261 µM.

As for `CN(C)C(=O)c1ccc(-c2ccc(N3CCN(C(=O)c4c(F)cccc4Cl)CC3)c(Cl)c2)cc1Cl` [Example 4-5, 3,3′-dichloro-4′-{4-[(2-chloro-6-fluorophenyl)carbonyl]piperazin-1-yl}-N,N-dimethylbiphenyl-4-carboxamide], in assay [1], the Emax is 63% and the EC50 amounted to 0.618 µM. In assay [2], the Emax was found to be 88% and the EC50 was 0.039 µM.

On to `CN(C)C(=O)c1ccc(-c2cnc(N3CCN(C(=O)[C@](C)(O)c4ccccc4)CC3)c(C#N)c2)cc1Cl` [Example 2-19, 2-chloro-4-(5-cyano-6-{4-[(2R)-2-hydroxy-2-phenylpropanoyl]piperazin-1-yl}pyridin-3-yl)-N,N-dimethylbenzamide], for which the maximum response (Emax) amounted to 27% in assay [1] and 77% in assay [2]. The EC50 in assay [1] stood at 60.2 µM; in assay [2], 0.027 µM.

In the case of `CN(C)C(=O)c1ccc(-c2cnc(N3CC4CC3CN4C(=O)OC(C)(C)C)c(C#N)c2)cc1Cl` (centres unmarked) [Example 8-5, tert-butyl 5-{5-[3-chloro-4-(dimethylcarbamoyl)phenyl]-3-cyanopyridin-2-yl}-2,5-diazabicyclo[2.2.1]heptane-2-carboxylate], in assay [1], the maximal response (Emax) was 37% and the EC50 stood at 16.8 µM. Moreover, in assay [2], the Emax came out at 53% and the EC50 worked out at 0.252 µM.

For `CN(C)C(=O)c1ccc(-c2ccc(N3CCN(S(=O)(=O)c4c(Cl)cccc4Cl)CC3)cc2)cc1Cl` [Example 4-13, 3-chloro-4′-{4-[(2,6-dichlorophenyl)sulfonyl]piperazin-1-yl}-N,N-dimethylbiphenyl-4-carboxamide], in assay [1], the Emax is 29% and the EC50 came to 5.73 µM. In addition, in assay [2], the Emax came to 97% and the EC50 stood at 0.38 µM.

As to `CN(C)C(=O)c1ccc(-c2ccc(N3CCN(C(=O)c4ccccc4C(F)(F)F)CC3)cc2)cc1Cl` [Example 4-17, 3-chloro-N,N-dimethyl-4′-(4-{[2-(trifluoromethyl)phenyl]carbonyl}piperazin-1-yl)biphenyl-4-carboxamide], in assay [1], the Emax was 9% and the “LXR alpha IP (nM)” value is recorded as “No IP”. Also, in assay [2], the Emax stood at 80% and the EC50 stood at 1.39 µM.

With `CC(C)(C)OC(=O)N1CCN(c2ncc(-c3ccc(C(=O)NCCCO)c(Cl)c3)cc2C#N)CC1` [Example 5-10, tert-butyl 4-(5-{3-chloro-4-[(3-hydroxypropyl)carbamoyl]phenyl}-3-cyanopyridin-2-yl)piperazine-1-carboxylate], the Emax is 37% in assay [1] and 63% in assay [2]. Besides, the EC50 in assay [1] was determined as 2.71 µM; in assay [2] it was 1.09 µM.

Turning to `CN(C)C(=O)c1ccc(-c2cnc(N3C4CCC3C3CCC4N3C(=O)OC(C)(C)C)c(C#N)c2)cc1Cl` [Example 8-11, tert-butyl 10-{5-[3-chloro-4-(dimethylcarbamoyl)phenyl]-3-cyanopyridin-2-yl}-9,10-diazatricyclo[4.2.1.1~2,5~]decane-9-carboxylate], the figures for the Emax in assay [1] and in assay [2] were 41% and 57%, respectively. For the same compound, the EC50 in assay [1] was 10.9 µM; in assay [2], 1.05 µM.

In the case of `CN(C)C(=O)c1ccc(-c2ccc(N3CCN(C(=O)c4c(F)cccc4F)CC3)c(Cl)c2)cc1Cl` [Example 4-1, 3,3′-dichloro-4′-{4-[(2,6-difluorophenyl)carbonyl]piperazin-1-yl}-N,N-dimethylbiphenyl-4-carboxamide], in assay [2], the maximum response (Emax) worked out at 90% and the EC50 turned out to be 0.833 µM.
